# From PubChem BioAssay (NCI)
#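 GI50 marks 50% less growth. At the TGI there is no net growth.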
# How the values were obtained:
# Experiment in all cases: DTP human tumour cell line panel, 384-well format
# MDA-MB-231 breast = tested on: MDA-MB-231 breast
# UACC-257 melanoma = tested on: UACC-257 melanoma
# SNB-75 CNS = tested on: SNB-75 CNS
# MCF7 breast = tested on: MCF7 breast
# SN12C renal = tested on: SN12C renal
# UACC-62 melanoma = tested on: UACC-62 melanoma
# KM12 colon = tested on: KM12 colon
# DU-145 prostate = tested on: DU-145 prostate
# CAKI-1 renal = tested on: CAKI-1 renal
# UO-31 renal = tested on: UO-31 renal
# HL-60(TB) leukemia = tested on: HL-60(TB) leukemia
# NCI-H23 lung = tested on: NCI-H23 lung
# HT29 colon = tested on: HT29 colon
smiles,measurement,setting,value
FC(F)(F)c1ccc(CNc2ccc(Cc3c[nH]c4ncc(Cl)cc34)cn2)cn1,GI50,MDA-MB-231 breast,13.7 µM
same,TGI,MDA-MB-231 breast,26.7 µM
same,GI50,UACC-257 melanoma,12.4 µM
same,TGI,UACC-257 melanoma,25.9 µM
same,GI50,SNB-75 CNS,2730 nM
same,TGI,SNB-75 CNS,8.45 µM
same,GI50,MCF7 breast,12.5 µM
same,TGI,MCF7 breast,25.3 µM
same,GI50,SN12C renal,14 µM
same,TGI,SN12C renal,27.1 µM
same,GI50,UACC-62 melanoma,12.5 µM
same,TGI,UACC-62 melanoma,25.3 µM
same,GI50,KM12 colon,4.46 µM
same,TGI,KM12 colon,14.2 µM
same,GI50,DU-145 prostate,15.4 µM
same,TGI,DU-145 prostate,29.1 µM
same,GI50,CAKI-1 renal,14.7 µM
same,TGI,CAKI-1 renal,28.8 µM
same,GI50,UO-31 renal,11.6 µM
same,TGI,UO-31 renal,23.9 µM
same,GI50,HL-60(TB) leukemia,6.17 µM
same,TGI,HL-60(TB) leukemia,16.3 µM
same,GI50,NCI-H23 lung,11 µM
same,TGI,NCI-H23 lung,23 µM
same,GI50,HT29 colon,9.79 µM
same,TGI,HT29 colon,23 µM
